# Laboratory results published in patent US12077555B2, “STAT degraders and uses thereof” (Kymera Therapeutics, Inc., priority 2019, dated 2024).
# Target: STAT3 (Homo sapiens, UniProt P40763)
# Test: STAT3 HiBiT degradation assay in transfected A549 cells
# Assay type: cell-based
# Set-up: expressed in transfected cells; host or cells: A549
# Conditions: A549, 24 h; read-out: STAT3 HiBiT A549 degradation 24 h: Average external-Abs DC50
# How it was run: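 Degradation read as HiBiT-tagged STAT3 luminescence (Nano-Glo lytic reagent, 10 min, room temperature) following 24 h compound treatment of transfected A549 cells at 3-fold, 10 points. Percent remaining signal computed against controls and fitted with a four-parameter logistic; DC50 reported as letter bins (A <0.01 to D >1.0 µM).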
# Chain of STAT3 (P40763 whole entry): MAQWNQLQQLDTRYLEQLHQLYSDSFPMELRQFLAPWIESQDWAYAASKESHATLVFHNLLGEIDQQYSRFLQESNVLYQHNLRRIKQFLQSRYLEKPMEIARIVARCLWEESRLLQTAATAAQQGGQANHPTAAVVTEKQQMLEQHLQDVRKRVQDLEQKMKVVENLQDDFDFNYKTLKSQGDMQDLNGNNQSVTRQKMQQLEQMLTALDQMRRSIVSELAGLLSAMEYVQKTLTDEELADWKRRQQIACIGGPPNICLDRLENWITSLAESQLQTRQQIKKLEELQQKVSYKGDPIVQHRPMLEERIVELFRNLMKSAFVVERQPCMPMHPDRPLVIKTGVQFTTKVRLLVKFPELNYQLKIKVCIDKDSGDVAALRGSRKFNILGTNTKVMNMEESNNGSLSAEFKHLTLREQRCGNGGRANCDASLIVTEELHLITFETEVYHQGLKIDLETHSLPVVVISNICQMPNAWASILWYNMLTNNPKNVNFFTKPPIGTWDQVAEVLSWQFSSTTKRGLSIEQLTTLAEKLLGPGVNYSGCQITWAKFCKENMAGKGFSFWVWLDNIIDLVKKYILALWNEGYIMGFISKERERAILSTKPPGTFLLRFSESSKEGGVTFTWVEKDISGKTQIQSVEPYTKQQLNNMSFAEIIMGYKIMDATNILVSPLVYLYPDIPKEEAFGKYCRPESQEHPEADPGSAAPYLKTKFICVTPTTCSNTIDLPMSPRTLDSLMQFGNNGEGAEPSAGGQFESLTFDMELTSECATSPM
compound,measurement,value
"Cc1ncsc1-c1ccc(CNC(=O)[C@@H]2C[C@@H](O)CN2C(=O)[C@@H](NC(=O)CC2CCN(c3ccc(CO[C@H](C)[C@H](CCC(N)=O)NC(=O)[C@@H]4Cc5cccc6c5N4C(=O)[C@@H](NC(=O)c4cc5cc(C(=O)P(=O)(O)O)ccc5[nH]4)CC6)cc3)CC2)C(C)(C)C)cc1 [Compound I-162, diammonium 2-[[(2S,11S)-2-[[(3S,4R)-1-carbamoyl-4-([4-[4-([[(2S)-1-[(2S,4R)-4-hydroxy-2-([[4-(4-methyl-1,3-thiazol-5-yl)phenyl]methyl]carbamoyl)pyrrolidin-1-yl]-3,3-dimethyl-1-oxobutan-2-yl]carbamoyl]methyl)piperidin-1-yl]phenyl]methoxy)pentan-3-yl]carbamoyl]-12-oxo-1-azatricyclo[6.4.1.0^[4,13]]trideca-4(13),5,7-trien-11-yl]carbamoyl]-1H-indole-5-carbonylphosphonate]",DC50,> 1 µM
Cc1ncsc1-c1ccc(CNC(=O)[C@@H]2C[C@@H](O)CN2C(=O)[C@@H](NC(=O)CC2CC(Cc3ccc(CO[C@H](C)[C@H](CCC(N)=O)NC(=O)[C@@H]4Cc5cccc6c5N4C(=O)[C@@H](NC(=O)c4cc5cc(C(=O)P(=O)(O)O)ccc5[nH]4)CC6)cc3)C2)C(C)(C)C)cc1 (stereo partly shown) [Compound I-163],DC50,> 1 µM
"Cc1ncsc1-c1ccc(CNC(=O)[C@@H]2C[C@@H](O)CN2C(=O)[C@@H](NC(=O)CCCCCc2cccc(OC[C@H](CCC(N)=O)NC(=O)[C@@H]3Cc4cccc5c4N3C(=O)[C@@H](NC(=O)c3cc4cc(C(=O)P(=O)(O)O)ccc4[nH]3)CC5)c2)C(C)(C)C)cc1 [Compound I-164, 2-[[(2S,11S)-2-[[(2S)-4-carbamoyl-1-[3-(5-[[(2S)-1-[(2S,4R)-4-hydroxy-2-([[4-(4-methyl-1,3-thiazol-5-yl)phenyl]methyl]carbamoyl)pyrrolidin-1-yl]-3,3-dimethyl-1-oxobutan-2-yl]carbamoyl]pentyl)phenoxy]butan-2-yl]carbamoyl]-12-oxo-1-azatricyclo[6.4.1.0^[4,13]]trideca-4(13),5,7-trien-11-yl]carbamoyl]-1H-indole-5-carbonylphosphonic acid]",DC50,0.01 to 0.1 µM
CC(=O)N1CC[C@H]2CC[C@@H](C(=O)N[C@@H](CCC(N)=O)[C@@H](C)OCc3ccc(CCCCC(=O)N[C@H](C(=O)N4C[C@H](O)C[C@H]4C(=O)NCc4ccc(-c5scnc5C)cc4)C(C)(C)C)cc3)N2C(=O)[C@@H](NC(=O)c2cc3cc(C(=O)P(=O)(O)O)ccc3[nH]2)C1 [Compound I-165],DC50,0.1 to 1 µM
"Cn1c(=O)n(C2CCC(=O)NC2=O)c2ccc(C[C@H]3CC[C@H](CC(=O)N4CC[C@H]5CC[C@@H](C(=O)N[C@@H](CCC(N)=O)C(=O)NC(c6ccccc6)c6ccccc6)N5C(=O)[C@@H](NC(=O)c5cc6cc(C(=O)P(=O)(O)O)ccc6[nH]5)C4)CC3)cc21 (stereo partly drawn) [Compound I-166, 2-[[(5S,8S,10aR)-8-[[(1S)-3-carbamoyl-1-(diphenylmethylcarbamoyl)propyl]carbamoyl]-6-oxo-3-[2-[(1r, 4r)-4-[[1-(2,6-dioxopiperidin-3-yl)-3-methyl-2-oxo-1,3-benzodiazol-5-yl]methyl]cyclohexyl]acetyl]-octahydropyrrolo[1,2-a][1,5]diazocin-5-yl]carbamoyl]-1H-indole-5-carbonylphosphonic acid]",DC50,0.01 to 0.1 µM
Cn1c(=O)n(C2CCC(=O)NC2=O)c2ccc(C[C@H]3CC[C@H](CCC(=O)N4CC[C@H]5CC[C@@H](C(=O)N[C@@H](CCC(N)=O)C(=O)NC(c6ccccc6)c6ccccc6)N5C(=O)[C@@H](NC(=O)c5cc6cc(C(=O)P(=O)(O)O)ccc6[nH]5)C4)CC3)cc21 (stereo partly shown) [Compound I-167],DC50,0.1 to 1 µM
"Cn1c(=O)n(C2CCC(=O)NC2=O)c2ccc(N3CCN(CCCC(=O)N4CC[C@H]5CC[C@@H](C(=O)N[C@@H](CCC(N)=O)C(=O)NC(c6ccccc6)c6ccccc6)N5C(=O)[C@@H](NC(=O)c5cc6cc(C(=O)P(=O)(O)O)ccc6[nH]5)C4)CC3)cc21 (stereo partly drawn) [Compound I-168, 2-[[(5S,8S,10aR)-8-[[(1S)-3-carbamoyl-1-(diphenylmethylcarbamoyl)propyl]carbamoyl]-3-(4-[4-[1-(2,6-dioxopiperidin-3-yl)-3-methyl-2-oxo-1,3-benzodiazol-5-yl]piperazin-1-yl]butanoyl)-6-oxo-octahydropyrrolo[1,2-a][1,5]diazocin-5-yl]carbamoyl]-1H-indole-5-carbonylphosphonic acid]",DC50,> 1 µM
"Cn1c(=O)n(C2CCC(=O)NC2=O)c2ccc(C3CCN(CCCC(=O)N4CC[C@H]5CC[C@@H](C(=O)N[C@@H](CCC(N)=O)C(=O)NC(c6ccccc6)c6ccccc6)N5C(=O)[C@@H](NC(=O)c5cc6cc(C(=O)P(=O)(O)O)ccc6[nH]5)C4)CC3)cc21 (stereo partly drawn) [Compound I-169, 2-[[(5S,8S,10aR)-8-[[(1S)-3-carbamoyl-1-(diphenylmethylcarbamoyl)propyl]carbamoyl]-3-(4-[4-[1-(2,6-dioxopiperidin-3-yl)-3-methyl-2-oxo-1,3-benzodiazol-5-yl]piperidin-1-yl]butanoyl)-6-oxo-octahydropyrrolo[1,2-a][1,5]diazocin-5-yl]carbamoyl]-1H-indole-5-carbonylphosphonic acid]",DC50,0.1 to 1 µM
"Cc1ncsc1-c1ccc(CNC(=O)[C@@H]2C[C@@H](O)CC2C(=O)[C@@H](NC(=O)CCc2ccc(CCCOC[C@H](CCC(N)=O)NC(=O)[C@@H]3Cc4cccc5c4N3C(=O)[C@@H](NC(=O)c3cc4cc(C(=O)P(=O)(O)O)ccc4[nH]3)CC5)cc2)C(C)(C)C)cc1 (stereo partly drawn) [Compound I-170, diammonium 2-[[(2S,11S)-2-[[(2S)-4-carbamoyl-1-[3-[4-(2-[[(2S)-1-[(2S,4R)-4-hydroxy-2-([[4-(4-methyl-1,3-thiazo1-5-yl)phenyl]methyl]carbamoyl)pyrrolidin-1-yl]-3,3-dimethyl-1-oxobutan-2-yl]carbamoyl]ethyl)phenyl]propoxy]butan-2-yl]carbamoyl]-12-oxo-1-azatricyclo[6.4.1.0^[4,13]]trideca-4(13),5,7-trien-11-yl]carbamoyl]-1H-indole-5-carbonylphosphonate]",DC50,> 1 µM
Cc1ncsc1-c1ccc(CNC(=O)[C@@H]2C[C@@H](O)CC2C(=O)[C@@H](NC(=O)CCCCC/C=C\COC[C@H](CCC(N)=O)NC(=O)[C@@H]2Cc3cccc4c3N2C(=O)[C@@H](NC(=O)c2cc3cc(C(=O)P(=O)(O)O)ccc3[nH]2)CC4)C(C)(C)C)cc1 (stereo partly shown) [Compound I-171],DC50,0.1 to 1 µM
"CC(=O)N1CC[C@H]2CC[C@@H](C(=O)N[C@@H](CCC(N)=O)C(=O)NCCCCCCCC(=O)N[C@H](C(=O)N3C[C@H](O)C[C@H]3C(=O)NCc3ccc(-c4scnc4C)cc3)C(C)(C)C)N2C(=O)[C@@H](NC(=O)c2cc3cc(C(=O)P(=O)(O)O)ccc3[nH]2)C1 [Compound I-172, 2-[[(5S,8S,10aR)-3-acetyl-8-[[(1S)-3-carbamoyl-1-[(7-[[(2S)-1-[(2S,4R)-4-hydroxy-2-([[4-(4-methyl-1,3-thiazol-5-yl)phenyl]methyl]carbamoyl)pyrrolidin-1-yl]-3,3-dimethyl-1-oxobutan-2-yl]carbamoyl]heptyl)carbamoyl]propyl]carbamoyl]-6-oxo-octahydropyrrolo[1,2-a][1,5]diazocin-5-yl]carbamoyl]-1H-indole-5-carbonylphosphonic acid]",DC50,> 1 µM
CC(=O)N1CC[C@H]2CC[C@@H](C(=O)N[C@@H](CCC(N)=O)C(=O)NCCCCCCCCC(=O)N[C@H](C(=O)N3C[C@H](O)C[C@H]3C(=O)NCc3ccc(-c4scnc4C)cc3)C(C)(C)C)N2C(=O)[C@@H](NC(=O)c2cc3cc(C(=O)P(=O)(O)O)ccc3[nH]2)C1 [Compound I-173],DC50,> 1 µM
"Cn1c(=O)n(C2CCC(=O)NC2=O)c2ccc(N3CCN(CCC(=O)N4CC[C@H]5CC[C@@H](C(=O)N[C@@H](CCC(N)=O)C(=O)NC(c6ccccc6)c6ccccc6)N5C(=O)[C@@H](NC(=O)c5cc6cc(C(=O)P(=O)(O)O)ccc6[nH]5)C4)CC3)cc21 (stereo partly drawn) [Compound I-175, 2-[[(5S,8S,10aR)-8-[[(1S)-3-carbamoyl-1-(diphenylmethylcarbamoyl)propyl]carbamoyl]-3-(3-[4-[1-(2,6-dioxopiperidin-3-yl)-3-methyl-2-oxo-1,3-benzodiazol-5-yl]piperazin-1-yl]propanoyl)-6-oxo-octahydropyrrolo[1,2-a][1,5]diazocin-5-yl]carbamoyl]-1H-indole-5-carbonylphosphonic acid]",DC50,0.1 to 1 µM
Cc1ncsc1-c1ccc(CNC(=O)C2C[C@@H](O)CN2C(=O)[C@@H](NC(=O)CC2CC(c3ccc(CO[C@H](C)[C@H](CCC(N)=O)NC(=O)[C@@H]4Cc5cccc6c5N4C(=O)[C@@H](NC(=O)c4cc5cc(C(=O)P(=O)(O)O)ccc5[nH]4)CC6)cc3)C2)C(C)(C)C)cc1 (stereo partly shown) [Compound I-176],DC50,> 1 µM
"Cn1c(=O)n(C2CCC(=O)NC2=O)c2ccc(C3CCN(CCC(=O)N4CC[C@H]5CC[C@@H](C(=O)N[C@@H](CCC(N)=O)C(=O)NC(c6ccccc6)c6ccccc6)N5C(=O)[C@@H](NC(=O)c5cc6cc(C(=O)P(=O)(O)O)ccc6[nH]5)C4)CC3)cc21 (stereo partly drawn) [Compound I-177, 2-[[(5S,8S,10aR)-8-[[(1S)-3-carbamoyl-1-(diphenylmethylcarbamoyl)propyl]carbamoyl]-3-(3-[4-[1-(2,6-dioxopiperidin-3-yl)-3-methyl-2-oxo-1,3-benzodiazol-5-yl]piperidin-1-yl]propanoyl)-6-oxo-octahydropyrrolo[1,2-a][1,5]diazocin-5-yl]carbamoyl]-1H-indole-5-carbonylphosphonic acid]",DC50,0.1 to 1 µM
Cc1ncsc1-c1ccc(CNC(=O)[C@@H]2C[C@@H](O)CN2C(=O)[C@@H](NC(=O)CN2CCC(Cc3ccc(CO[C@H](C)[C@H](CCC(N)=O)NC(=O)[C@@H]4Cc5cccc6c5N4C(=O)[C@@H](NC(=O)c4cc5cc(C(=O)P(=O)(O)O)ccc5[nH]4)CC6)cc3)CC2)C(C)(C)C)cc1 [Compound I-178],DC50,> 1 µM
